Reference: patent publication US20260144796A1, “Compounds and Methods for Improving Health” (Acurx Pharmaceuticals, Inc., priority 2022, published 2026)
Values after ≈ are worked out from the molar mass of the structure shown. Read-outs that look alike come from different tables or passages of the source.

Experiments:
[1] = tested on: Melissococcus plutonius; assay: MIC determination, stool Firmicute isolates; format: cell-based; settings: N=1
[2] = tested on: Longibaculum sp.; assay: MIC determination, stool Firmicute isolates; format: cell-based; settings: N=1
[3] = tested on: C. difficile CD 630 motility; assay: Phenotypic motility assay; settings: sub-inhibitory concentrations in semi-solid BHI agar
[4] = tested on: C. difficile clinical isolates; settings: Clostridioides difficile, 24 h, agar dilution
[5] = tested on: C. difficile infection (CDI); assay: Phase 2a CDI clinical trial, clinical outcome and safety; format: in vivo, human
Procedure: Phase 2a of this trial was an open label cohort of 10 subjects from study centers in the United States. In this cohort, 10 patients with diarrhea caused by mild or moderate C. difficile diagnosed via toxin EIA+ were treated with ibezapolstat 450 mg orally, twice daily for 10 days. […] Stool was collected during course of therapy and at follow up. Patient fecal samples were evaluated for C. difficile culture and microbiome changes. […] Favorable microbiome changes included overgrowth of Actinobacteria and Firmicutes phylum species while on therapy. These findings support that microbiome effects may be predictive of beneficial patient outcomes including low rates of recurrence. […] Safety evaluations included AE assessment, physical examination, vital signs, clinical laboratory tests (chemistry, hematology, and urinalysis), and electrocardiogramaty endpoints for all subjects were recorded including nature, frequency, and severity of AEs. AEs were assessed at each visit beginning from the time of enrollment and classified according to the Medical Dictionary for Regulatory Activities (MedDRA version 15.0). AE severity (mild, moderate, or severe) and causality (unrelated, possibly related, or probably related to the study medication) were assessed by the investigator at each site. Stool samples were cultured for C. difficile growth on a selective cycloserine-cefoxitin fructose agar (CCFA) at 37° C. under anaerobic conditions for 48 hours. (Gonzales-Luna A J, Carlson T J. Dotson K M, et al. […] Emerg Microbes Infect 2020; 9(1): 341-7). Isolates were determined to be C. difficile based on growth and morphology and confirmed by PCR for C. difficile toxin and tpi genes. C. difficile was strain typed using a PCR-based ribotyping method as previously described (Gonzales-Luna A J, Carlson T J, Dotson K M, et al. […] Emerg Microbes Infect 2020; 9(1):341-7). Minimum inhibitory concentrations (MICs) were determined for ibezapolstat by broth microdilution in 0.1% sodium taurocholate Brain Heart Infusion (BHI) media (Begum K, Basseres E, Miranda J. et al. […] Antimicrob Agents Chemother 2020; 64(8)). An intent-to-treat analysis of patients receiving at least one dose of ibezapolstat was conducted. Descriptive statistics were calculated for efficacy, safety/tolerability, and PK data generated using SAS version 9.4 software (SAS Institute, Inc Cary, NC, USA). Microbiome summary plots and data visualization was prepared using R software version 4.1.1 (R Core Team 2021, Vienna, Austria). (R Core Team (2013). R: A language and environment for statistical computing. R Foundation for Statistical Computing, Vienna, Austria.

[6] = tested on: Enterococcus faecalis; assay: MIC determination, stool Firmicute isolates; format: cell-based
[7] = tested on: gut microbiome; assay: Phase 1 healthy volunteer study, gut microbiome (metagenomics, qPCR); format: in vivo, human; settings: for Proportion of isolated Firmicutes, Erysipelotrichaceae: baseline 2%; for Proportion of isolated Firmicutes, Other: baseline 4%; for Proportion of isolated Firmicutes, Lachnospiraceae: baseline 26%; for Proportion of isolated Firmicutes, Ruminococcaceae: baseline 68%
[8] = tested on: Dorea longicatena; assay: MIC determination, stool Firmicute isolates; format: cell-based; settings: N=1
[9] = tested on: C. difficile toxin A and B; assay: Toxin production by ELISA; format: cell-based; settings: for reduction of toxin levels (toxin A and B), normalized to controls: sub-inhibitory concentrations, 24 h
Procedure: Toxin production was assessed by ELISA (tgcBiomics) according to the manufacturer instructions.

[10] = tested on: Coprococcus sp; assay: MIC determination, stool Firmicute isolates; format: cell-based; settings: N=1
[11] = healthy volunteers, 450 mg twice daily 10 days, day 3
[12] = healthy volunteers, 450 mg twice daily 10 days, day 5
[13] = healthy volunteers, 450 mg twice daily 10 days, day 8
[14] = healthy volunteers, 450 mg twice daily 10 days, day 10
[15] = healthy volunteers, 450 mg twice daily 10 days, day 12

With `O=c1[nH]c(NCc2ccc(Cl)c(Cl)c2)nc2ncn(CCN3CCOCC3)c12` [Ibezapolstat, 2-((3,4-dichlorobenzyl)amino)-7-(2-morpholinoethyl)-1,7-dihydro-6H-purin-6-one] the MIC50 [1] was 6.25 µg/mL (≈ 14.8 µM), the MIC50 [2] was 50 µg/mL (≈ 118 µM) and the “motility of CD 630” value [3] was “attenuated motility”. The “motility of CD 630” value ([3]; listed as IBZ) was “less motile”, the MIC ([4]; C. difficile clinical isolate MT 4802) was 4 µg/mL (≈ 9.45 µM) and the MIC ([4]; C. difficile clinical isolate MT 5071) was 8 µg/mL (≈ 18.9 µM). The MIC ([4]; C. difficile clinical isolate MT 5342) was 4 µg/mL (≈ 9.45 µM), the MIC ([4]; C. difficile clinical isolate MT 5364) was 4 µg/mL (≈ 9.45 µM) and the MIC ([4]; C. difficile clinical isolate MT 5382) was 8 µg/mL (≈ 18.9 µM). The MIC ([4]; C. difficile clinical isolate MT 5426) was 8 µg/mL (≈ 18.9 µM), the MIC ([4]; C. difficile clinical isolate MT 5493) was 4 µg/mL (≈ 9.45 µM) and the MIC ([4]; C. difficile clinical isolate MT 5515) was 8 µg/mL (≈ 18.9 µM). The MIC ([4]; C. difficile clinical isolate MT 5529) was 4 µg/mL (≈ 9.45 µM), the MIC ([4]; C. difficile clinical isolate MT 5536) was 8 µg/mL (≈ 18.9 µM) and the MIC ([4]; C. difficile clinical isolate SH 1132) was 8 µg/mL (≈ 18.9 µM). The adverse event profile ([5]; 10 CDI patients, 450 mg orally twice daily 10 days) was “acceptable adverse event profile”, the clinical cure ([5]; 10 CDI patients, 450 mg orally twice daily 10 days, at day 12) was 100% and the sustained clinical cure ([5]; 10 CDI patients, 450 mg orally twice daily 10 days, at day 38) was 100%. The success rate ([5]; Phase 2a CDI clinical trial) was 100%, the “eradication of colonic C. difficile” value ([5]; by day three of treatment) was “complete eradication” and the recurrences of infection ([5]; followed for recurrence for 28±2 days) was “no recurrences”. The MIC50 [6] was 12.5 µg/mL (≈ 29.5 µM), the MIC ([6]; N=5, read-out: MIC Max) was 50 µg/mL (≈ 118 µM) and the MIC ([6]; read-out: MIC Min) was 12.5 µg/mL (≈ 29.5 µM). The “amount of C. coccoides (Clostridium cluster XIVa), qPCR” value ([7]; healthy volunteers, 450 mg twice a day, over 12 days) was “increased”, the “Proportion of isolated Firmicutes, Streptococcaceae” value (“Proportion … Streptococcaceae” below) [7, 11] was 27% and the “Proportion of isolated Firmicutes, Veillonellaceae” value [7, 11] was 3%. For the same molecule, the “Proportion of isolated Firmicutes, Erysipelotrichaceae” value (shortened to “Proportion … Erysipelotrichaceae”) [7, 11] was 4%, the “Proportion of isolated Firmicutes, Other” value [7, 11] was 6% and the “Proportion of isolated Firmicutes, Lachnospiraceae” value (“Proportion … Lachnospiraceae” below) [7, 11] was 23%. For the same molecule, the “Proportion of isolated Firmicutes, Ruminococcaceae” value (from here on “Proportion … Ruminococcaceae”) [7, 11] was 37%, the “Proportion … Streptococcaceae” value [7, 12] was 43% and the “Proportion … Erysipelotrichaceae” value [7, 12] was 7%. The “Proportion of isolated Firmicutes, Other” value [7, 12] was 9%, the “Proportion … Lachnospiraceae” value [7, 12] was 21% and the “Proportion … Ruminococcaceae” value [7, 12] was 20%. The “Proportion of isolated Firmicutes, Lactobacilloae” value (shortened to “Proportion … Lactobacilloae”) [7, 13] was 12%, the “Proportion … Streptococcaceae” value [7, 13] was 49% and the “Proportion … Erysipelotrichaceae” value [7, 13] was 7%. For the same molecule, the “Proportion of isolated Firmicutes, Other” value [7, 13] was 9%, the “Proportion … Lachnospiraceae” value [7, 13] was 16% and the “Proportion … Ruminococcaceae” value [7, 13] was 7%. For the same molecule, the “Proportion … Lactobacilloae” value [7, 14] was 5%, the “Proportion … Streptococcaceae” value [7, 14] was 41% and the “Proportion … Erysipelotrichaceae” value [7, 14] was 18%. The “Proportion of isolated Firmicutes, Other” value [7, 14] was 9%, the “Proportion … Lachnospiraceae” value [7, 14] was 24% and the “Proportion … Ruminococcaceae” value [7, 14] was 3%. The “Proportion … Lactobacilloae” value [7, 15] was 6%, the “Proportion … Streptococcaceae” value [7, 15] was 14% and the “Proportion … Erysipelotrichaceae” value [7, 15] was 25%. The “Proportion of isolated Firmicutes, Other” value [7, 15] was 5%, the “Proportion … Lachnospiraceae” value [7, 15] was 47% and the “Proportion … Ruminococcaceae” value [7, 15] was 4%. The “Actinobacteria abundance after starting treatment” value ([7]; healthy volunteers, primarily Bifidobacteriales or Coriobacteriales, persisted for the entire dosing period) was “increased in abundance”, the “microbiome profile of treated subjects” value ([7]; phase 1 healthy volunteer study, treatment over 10 days, shotgun metagenomic sequencing) was “larger proportion of Actinobacteria and Firmicute Phylum” and the MIC50 [8] was 3.12 µg/mL (≈ 7.38 µM). For the same molecule, the “total toxin A and B production” value ([9]; strain CD 630, 24 hours of treatment) was “decreases total toxin A and B production in strain CD 630 in a dose-dependent manner”, the “reduction of toxin levels (toxin A and B), normalized to controls” value ([9]; strain CD 630) was 55% and the “reduction of toxin levels (toxin A and B), normalized to controls” value ([9]; strain R20291) was 60%. The MIC50 [10] was 25 µg/mL (≈ 59.1 µM).
